Where two headings read alike, the source gives them in different places.
What was measured:
Type in all cases: cell-based
[1] = test system: E. faecalis ATCC 29212; assay: MIC by NCCLS microdilution, EtBr/EPI with and without EPI; conditions: Enterococcus faecalis, ATCC29212, read-out: MIC of EtBr without EPI
Method: (§1) 3% sterile laked horse blood (Quad Five, Ryegate, Mont.) was added to assays for E. faecalis and S. Pneumoniae. A final concentration of 1% DMSO was present in all assays.
(§2) EtBr is a general substrate for many different efflux pumps in bacteria. Markham et al., “Multiple Novel Inhibitors of the NorA Multidrug Transporter of Staphylococcus aureus”, Antimicrob. Agents Chemother. 43:2404-2408 (1999). Since EtBr is a non-specific DNA intercalator, the only known mechanism of resistance to EtBr is via efflux. Markham et al., “Multiple Novel Inhibitors of the NorA Multidrug Transporter of Staphylococcus aureus”, Antimicrob. Agents Chemother. 43:2404-2408 (1999).

[2] = test system: S. pneumoniae ATCC 10015; assay: as above; conditions: Streptococcus pneumoniae, ATCC10015, read-out: MIC of EtBr without EPI
Method: as §1, §2

[3] = test system: S. aureus SA-1199 (clinical isolate, susceptible); assay: MIC of fluoroquinolones with and without EPI; conditions: Staphylococcus aureus, read-out: MIC of antibacterial agent, EPI none
From the text: (§3) A variety of strains may be used in these experiments, including, but not limited to, S. aureus ATCC 29213, E. faecalis ATCC 29212, and S. pneumoniae, S. aureus strains SA-1199, SA-1199B, SA-8325-4, and SA-K2068. S. aureus ATCC 29213, E. faecalis ATCC 29212, and S. pneumoniae ATCC 10015 were obtained from the American Type Culture Collection (Manassas, Va.). S. aureus strains SA-1199 (clinical isolate, susceptible), SA-1199B (SA-1199, NorA overproducing, also has A116E GrlA mutation), SA-8325-4 (NCTC 8325 cured of prophages), SA-K2068 (SA-8325-4, non-NorA multidrug efflux pump overproducing mutation) were obtained from Glenn Kaatz (Kaatz et al., “Identification and characterization of a novel efflux-related multidrug resistance phenotype in Staphylococcus aureus”, J. Antimicrob. Chemother. 50:833-838 (2002); 1993; Kaatz et al., “Phenothiazines and thioxanthenes inhibit multidrug efflux pump activity in Staphylococcus aureus”, Antimicrob. Agents Chemother. 47:719-726, Kaatz et al., “Efflux-mediated fluoroquinolone resistance in Staphylococcus aureus. Antimicrob. Agents Chemother.”, 37:1086-1094, 1993)).
as §1

[4] = test system: S. aureus SA-8325-4; assay: MIC of fluoroquinolones with and without EPI; conditions: Staphylococcus aureus, SA83254, read-out: MIC of antibacterial agent, EPI none
From the text: as §3, §1

[5] = test system: S. aureus ATCC 29213; assay: MIC by NCCLS microdilution, antibacterial agents with and without EPI; conditions: for MIC: Staphylococcus aureus; for MIC in the presence of 4X MEC of EPI, VX-710: VX-710 100 μg/ml; for MIC in the presence of 4X MEC of EPI, VX-853: VX-853 6.25 μg/ml; for MIC in the presence of 4X MEC of EPI, reserpine: reserpine 25 μg/ml; for MIC of EPI: EPI alone; for Fold-reduction in EtBr MIC / MIC of EtBr with EPI: EPIs used at the MEC, except VX-710 at 100 μg/ml
Method: 3% sterile laked horse blood (Quad Five, Ryegate, Mont.) was added to assays for E. faecalis and S. Pneumoniae. A final concentration of 1% DMSO was present in all assays. […]
A-106 and C-9 were tested at their respective MECs in combination with a variety of different classes of antibiotics against S. aureus ATCC 29213 (Table 2).

[6] = test system: S. aureus SA-K2068 (non-NorA multidrug efflux pump overproducing); assay: microbe, parasite or virus in culture; conditions: Staphylococcus aureus
From the text: as §3, §1
(§4) Recent more hydrophobic fluoroquinolones such as gatifloxacin and moxifloxacin are less well recognized by NorA; however, recently one other pump in S. aureus has been described which also recognizes hydrophobic fluoroquinolones (Kaatz et al. 2002, supra). To investigate the potential of A-106 and C-9 to block the efflux of several fluoroquinolones in cells with constituitively over-expressed efflux pumps, we used S. aureus strains SA-1199B and K2068 (Table 3). […] Kaatz et al., “Phenothiazines and thioxanthenes inhibit multidrug efflux pump activity in Staphylococcus aureus”, Antimicrob. Agents Chemother. 47:719-726 (2003).

[7] = test system: S. aureus SA-1199B (NorA overproducing); assay: MIC of fluoroquinolones with and without EPI; conditions: Staphylococcus aureus
From the text: as §3, §1, §4

[8] = test system: S. aureus ATCC 29213; assay: Minimal effective concentration (MEC) of EPI for EtBr; conditions: S. aureus ATCC 29213; lowest amount of EPI which produces the maximum effect on the MIC of ethidium bromide
Method: The MEC was determined as the minimal concentration of EPI that produced the maximal reduction in substrate MIC.
The minimum effective concentration (MEC) for inhibition of EtBr efflux was determined in S. aureus, E. faecalis and S. pneumoniae for A-106 and C-9; reserpine was used as a comparator (Table 1).

[9] = test system: S. aureus clinical isolates; assay: MIC90 studies: fluoroquinolone susceptibility of clinical isolate panel with EPI; conditions: Staphylococcus aureus
Method: (§5) Susceptibility studies with large panels of resistant clinical isolates were performed at Focus Technologies, Herndon, Va. according to NCCLS protocols (National Committee for Clinical Laboratory Standards, supra).
(§6) To be useful in combination therapy, an EPI needs to substantially reduce the MIC of an antibiotic to within the range of clinical susceptibility. Because many different resistance mechanisms are often present in clinical isolates, including the likelihood of multiple target-based mutations in addition to efflux mutations, the barrier to antibiotic efficacy is much greater. […] Oxacillin and vancomycin MICs were also determined to identify which isolates were methicillin-resistant (S. aureus) and vancomycin-resistant (E. faecalis).

[10] = test system: E. faecalis clinical isolates; assay: as above; conditions: Enterococcus faecalis, read-out: MIC, No EPI
Method: as §5, §6

[11] = ATCC29213, read-out: MIC of antibacterial agent, EPI none, S. aureus ATCC 29213, no EPI
[12] = ATCC29213, read-out: MIC, No EPI, antibacterial agent alone
[13] = read-out: MIC of antibacterial agent, EPI none
[14] = read-out: MIC of Gatifloxacin without EPI

**Q.** For `CC[n+]1c(-c2ccccc2)c2cc(N)ccc2c2ccc(N)cc21` [EtBr, Ethidium bromide], which MIC [1] is on record?
**A.** 6.3 µg/mL

**Q.** And the MIC [2]?
**A.** 2 µg/mL

**Q.** What about the MIC [3] of the same molecule?
**A.** 6.2 µg/mL

**Q.** What about the MIC [4] of the same molecule?
**A.** 3.1 µg/mL

**Q.** What about the “MIC of EtBr without EPI” value ([5]; S. aureus ATCC 29213) of the same molecule?
**A.** 6.2 µg/mL

**Q.** What about the MIC ([5]; ATCC29213, read-out: MIC of EtBr without EPI, S. aureus ATCC 29213) of the same molecule?
**A.** 6.3 µg/mL

**Q.** And the MIC [5, 11]?
**A.** 6.2 µg/mL

**Q.** And the MIC [5, 12]?
**A.** 6.2 µg/mL

**Q.** And the “MIC in the presence of 4X MEC of EPI, VX-710” value [5]?
**A.** 0.2 µg/mL

**Q.** What about the “MIC in the presence of 4X MEC of EPI, VX-853” value [5] of the same molecule?
**A.** 1.6 µg/mL

**Q.** And the “MIC in the presence of 4X MEC of EPI, reserpine” value [5]?
**A.** 1.6 µg/mL

**Q.** And the MIC [6, 13]?
**A.** 12.5 µg/mL

**Q.** And the MIC [7, 13]?
**A.** 25 µg/mL

**Q.** `COc1cc(C(=O)C(=O)N2CCCCC2C(=O)OC(CCCc2ccccc2)CCCc2cccnc2)cc(OC)c1OC` (stereo not shown) [VRT-010367] was tested. Which “MIC of EPI” value ([5]; S. aureus ATCC 29213) did it give?
**A.** >50 µg/mL

**Q.** What about the “Fold-reduction in EtBr MIC” value ([5]; S. aureus ATCC 29213) of the same molecule?
**A.** 2

**Q.** What about the “MIC of EtBr with EPI” value ([5]; S. aureus ATCC 29213) of the same molecule?
**A.** 3.1 µg/mL

**Q.** And the “MEC of EPI” value [8]?
**A.** 1.6 µg/mL

**Q.** Which “MIC of EPI” value ([5]; S. aureus ATCC 29213) does the source give for `COc1cc(C(=O)C(=O)N(C)C(Cc2ccccc2)C(=O)N(Cc2ccccc2)C(CCc2ccncc2)CCc2ccncc2)cc(OC)c1OC` (stereo not shown) [VRT-013661] here?
**A.** >100 µg/mL

**Q.** What about the “Fold-reduction in EtBr MIC” value ([5]; S. aureus ATCC 29213) of the same molecule?
**A.** 4

**Q.** And the “MIC of EtBr with EPI” value ([5]; S. aureus ATCC 29213)?
**A.** 1.6 µg/mL

**Q.** And the “MEC of EPI” value [8]?
**A.** 3.1 µg/mL

**Q.** Which MIC [3] does the source give for `COc1c(N2CCNC(C)C2)c(F)cc2c(=O)c(C(=O)O)cn(C3CC3)c12` (stereo not shown) [gatifloxacin, reference compound] here?
**A.** 0.063 µg/mL

**Q.** What about the MIC [4] of the same molecule?
**A.** 0.125 µg/mL

**Q.** And the MIC ([5]; ATCC29213, read-out: MIC of Gatifloxacin without EPI, S. aureus ATCC 29213 (Table 4))?
**A.** 0.125 µg/mL

**Q.** And the MIC [5, 11]?
**A.** 0.063 µg/mL

**Q.** What about the MIC [5, 12] of the same molecule?
**A.** 0.125 µg/mL

**Q.** And the “MIC in the presence of 4X MEC of EPI, VX-710” value [5]?
**A.** 0.125 µg/mL

**Q.** And the “MIC in the presence of 4X MEC of EPI, VX-853” value [5]?
**A.** 0.125 µg/mL

**Q.** And the “MIC in the presence of 4X MEC of EPI, reserpine” value [5]?
**A.** 0.125 µg/mL

**Q.** What about the MIC [6, 14] of the same molecule?
**A.** 1 µg/mL

**Q.** What about the MIC [6, 13] of the same molecule?
**A.** 1 µg/mL

**Q.** What about the MIC [7, 14] of the same molecule?
**A.** 0.5 µg/mL

**Q.** And the MIC [7, 13]?
**A.** 0.5 µg/mL

**Q.** Which results are given for `CCn1cc(C(=O)O)c(=O)c2cc(F)c(N3CCNCC3)cc21` [norfloxacin, reference compound]?
**A.** MIC [3]: 0.5 µg/mL; MIC [4]: 1 µg/mL; MIC ([5]; ATCC29213, antibacterial agent alone, read-out: MIC, No EPI): 1 µg/mL; MIC [5, 11]: 0.5 µg/mL; MIC in the presence of 4X MEC of EPI, VX-710 [5]: 0.25 µg/mL; MIC in the presence of 4X MEC of EPI, VX-853 [5]: 0.5 µg/mL; MIC in the presence of 4X MEC of EPI, reserpine [5]: 0.5 µg/mL; MIC ([9]; S. aureus clinical isolate 1): 16 µg/mL; MIC ([9]; S. aureus clinical isolate 2): 1 µg/mL; MIC ([9]; S. aureus clinical isolate 3): 1 µg/mL; MIC ([9]; S. aureus clinical isolate 4): 256 µg/mL; MIC ([9]; S. aureus clinical isolate 5): 1 µg/mL; MIC ([9]; S. aureus clinical isolate 6): 32 µg/mL; MIC ([9]; S. aureus clinical isolate 7): 2 µg/mL; MIC ([9]; S. aureus clinical isolate 8): 4 µg/mL; MIC ([9]; S. aureus clinical isolate 9): 1 µg/mL; MIC ([9]; S. aureus clinical isolate 10): 64 µg/mL; MIC ([9]; S. aureus clinical isolate 11): 64 µg/mL; MIC ([9]; S. aureus clinical isolate 12): 1 µg/mL; MIC ([9]; S. aureus clinical isolate 13): 256 µg/mL; MIC ([9]; S. aureus clinical isolate 14): 256 µg/mL; MIC ([9]; S. aureus clinical isolate 15): 256 µg/mL; MIC ([10]; E. faecalis clinical isolate 1): 4 µg/mL; MIC ([10]; E. faecalis clinical isolate 2): 4 µg/mL; MIC ([10]; E. faecalis clinical isolate 3): 128 µg/mL; MIC ([10]; E. faecalis clinical isolate 4): 128 µg/mL; MIC ([10]; E. faecalis clinical isolate 5): 64 µg/mL; MIC ([10]; E. faecalis clinical isolate 6): 2 µg/mL; MIC ([10]; E. faecalis clinical isolate 7): 2 µg/mL; MIC ([10]; E. faecalis clinical isolate 8): 128 µg/mL; MIC ([10]; E. faecalis clinical isolate 9): 4 µg/mL; MIC ([10]; E. faecalis clinical isolate 10): 64 µg/mL; MIC ([10]; E. faecalis clinical isolate 11): 128 µg/mL; MIC ([10]; E. faecalis clinical isolate 12): 2 µg/mL; MIC ([10]; E. faecalis clinical isolate 13): 2 µg/mL; MIC ([10]; E. faecalis clinical isolate 14): 4 µg/mL; MIC ([10]; E. faecalis clinical isolate 15): 4 µg/mL; MIC ([10]; E. faecalis clinical isolate 16): 4 µg/mL; MIC ([10]; E. faecalis clinical isolate 17): 4 µg/mL; MIC ([10]; E. faecalis clinical isolate 18): 128 µg/mL; MIC ([10]; E. faecalis clinical isolate 19): 4 µg/mL; MIC ([10]; E. faecalis clinical isolate 20): 4 µg/mL; MIC ([10]; E. faecalis clinical isolate 21): 2 µg/mL; MIC ([10]; E. faecalis clinical isolate 22): 128 µg/mL; MIC ([10]; E. faecalis clinical isolate 23): 64 µg/mL; MIC ([10]; E. faecalis clinical isolate 24): > 256 µg/mL; MIC ([10]; E. faecalis clinical isolate 25): 128 µg/mL; MIC ([10]; E. faecalis clinical isolate 26): > 256 µg/mL; MIC [6, 13]: 8 µg/mL

Reference: patent US20090291964A1, “Potentiators of Antibacterial Activity” (priority 2003, published 2009)
